Measured values from the supplement of paper PMC10307832.

Experiments:
Experiment in all cases: relative viability (nuclei count vs DMSO), 5 days (fraction); higher = more cells survive
[1] = compound: CCn1c(-c2nonc2N)nc2cnc(Oc3cccc(NC(=O)c4ccc(OCCN5CCOCC5)cc4)c3)cc21 + C[C@@H](Oc1cc(-c2cnn(C3CCNCC3)c2)cnc1N)c1c(Cl)ccc(F)c1Cl [Crizotinib] (partner 1 µM)
Outline: (§1)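 Relative viability was taken as the ratio of nuclei in treated wells to nuclei in vehicle wells. Lung cancer cell lines in 1536-well plates received compounds by pin tool one day after seeding, either one drug alone or a fixed anchor-drug dose plus five library-drug doses (not always all listed) in √10 steps. Nuclei were counted on 4× images after 5 days of treatment, and values are medians of duplicate plates.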

Mirin + Bortezomib = compound: N=C1NC(=O)/C(=C/c2ccc(O)cc2)S1 [Mirin] + CC(C)C[C@H](NC(=O)[C@H](Cc1ccccc1)NC(=O)c1cnccn1)B(O)O [Bortezomib] (partner 0.002 µM)
Outline: as §1

[2] = compound: CCC1=CN=CN=C1N2CCN(CC2)CC3=NC4=C(N3)C=C(C=C4)C(F)(F)F + N=C(N)NC(=N)NCCc1ccccc1 [Phenformin] (partner 250 µM)
Outline: as §1

[3] = compound: CCC1=CN=CN=C1N2CCN(CC2)CC3=NC4=C(N3)C=C(C=C4)C(F)(F)F + CC(=O)c1c(C)c2cnc(Nc3ccc(N4CCNCC4)cn3)nc2n(C2CCCC2)c1=O [Palbociclib] (partner 0.5 µM)
Outline: as §1

Cell Line | relative viability ([1]; first compound 0.04 µM) | relative viability ([1]; first compound 0.1265 µM) | relative viability ([1]; first compound 0.4 µM) | relative viability ([1]; first compound 1.265 µM) | relative viability ([1]; first compound 4 µM) | relative viability (Mirin + Bortezomib; first compound 0.25 µM) | relative viability (Mirin + Bortezomib; first compound 0.7906 µM) | relative viability (Mirin + Bortezomib; first compound 2.5 µM) | relative viability (Mirin + Bortezomib; first compound 7.906 µM) | relative viability (Mirin + Bortezomib; first compound 25 µM) | relative viability ([2]; first compound 0.04 µM) | relative viability ([2]; first compound 0.1265 µM) | relative viability ([2]; first compound 0.4 µM) | relative viability ([2]; first compound 1.265 µM) | relative viability ([2]; first compound 4 µM) | relative viability ([3]; first compound 0.04 µM) | relative viability ([3]; first compound 0.1265 µM) | relative viability ([3]; first compound 0.4 µM) | relative viability ([3]; first compound 1.265 µM) | relative viability ([3]; first compound 4 µM)
HCC-78 | 0.429 | 0.357 | 0.333 | 0.393 | 0.399 | 0.449 | 1.03 | 0.524 | 0.397 | 0.424 | 0.614 | 0.618 | 0.637 | 0.588 | 0.555 | 0.447 | 0.461 | 0.477 | 0.451 | 0.468
NCI-H3122 | 0.266 | 0.298 | 0.342 | 0.318 | 0.346 | 1.06 | 0.985 | 0.986 | 1.1 | 1.1 | 0.372 | 0.362 | 0.318 | 0.359 | 0.342 | 0.176 | 0.226 | 0.207 | 0.172 | 0.172
HOP-62 | 0.972 | 0.86 | 0.951 | 0.931 | 0.755 | 0.727 | 0.867 | 0.725 | – | 0.836 | 0.47 | 0.664 | 0.655 | 0.653 | 0.616 | 0.475 | 0.451 | 0.414 | 0.438 | 0.413
NCI-H661 | 0.993 | 1.05 | 1.13 | 0.694 | 0.86 | 0.696 | 0.787 | 0.836 | 0.518 | 0.527 | 0.28 | 0.259 | 0.301 | 0.263 | 0.313 | 0.378 | 0.398 | 0.416 | 0.386 | 0.38
BEN | 0.818 | 0.869 | 0.631 | 0.318 | 0.303 | 0.638 | 0.779 | 0.967 | 0.625 | 0.548 | 0.254 | 0.255 | 0.229 | 0.253 | 0.265 | 0.454 | 0.487 | 0.469 | 0.437 | 0.464
ChaGo-K-1 | 1.31 | 1.04 | 0.96 | – | 0.633 | 0.984 | – | 0.953 | 0.628 | 0.969 | 0.462 | 0.5 | 0.409 | 0.443 | 0.482 | 0.976 | 0.946 | 0.929 | 0.907 | 0.881
NCI-H1755 | 0.911 | 0.94 | 0.845 | 0.795 | 0.776 | 0.951 | 1.03 | 0.979 | 0.873 | 1.11 | 0.632 | 0.583 | 0.597 | 0.484 | 0.634 | 0.475 | 0.478 | 0.45 | 0.437 | 0.49
NCI-H2023 | 0.737 | 0.736 | 0.593 | 0.25 | 0.194 | 1.13 | 0.807 | 1 | 1.05 | 0.926 | 0.449 | 0.433 | 0.442 | 0.378 | 0.393 | 0.422 | 0.347 | 0.358 | 0.376 | 0.345
LC-2-ad | 0.52 | 0.478 | 0.435 | – | 0.347 | 0.996 | 1.07 | 1.03 | 0.907 | 1.03 | 0.52 | 0.547 | 0.604 | 0.495 | 0.679 | 0.471 | 0.48 | 0.501 | 0.466 | 0.472
NCI-H1666 | 1.21 | 1.2 | 1.23 | 0.726 | 0.372 | 0.883 | 0.873 | 0.976 | 0.513 | 0.479 | 0.569 | 0.551 | 0.52 | 0.555 | 0.594 | 0.609 | 0.609 | 0.669 | 0.659 | 0.608
201T | 1 | 1.02 | 1.03 | 1.03 | 0.964 | 1.12 | 1.12 | 1.2 | 1.18 | 1.23 | 0.517 | 0.455 | 0.474 | 0.431 | 0.442 | 0.331 | 0.348 | 0.367 | 0.375 | 0.344
NCI-H2009 | 0.987 | 0.847 | 0.754 | 0.41 | 0.258 | 1 | 0.831 | 1.12 | 0.869 | 1.14 | 0.483 | 0.498 | 0.45 | 0.419 | 0.374 | 0.195 | 0.238 | 0.184 | 0.15 | 0.0584
NCI-H23 | 0.812 | 0.82 | – | 0.439 | 0.305 | 1.3 | – | 1.15 | 0.842 | 0.817 | 0.703 | 0.742 | 0.768 | 0.73 | 0.792 | 0.496 | 0.584 | 0.541 | 0.42 | 0.531
LU99A | 0.581 | 0.64 | 0.528 | 0.636 | 0.424 | 1.07 | 0.93 | 1.17 | 1 | 0.968 | 0.858 | 0.795 | 0.808 | 0.634 | 0.942 | 0.428 | 0.431 | 0.378 | 0.439 | 0.435
NCI-H1437 | 0.788 | 0.949 | 0.749 | 0.703 | 0.666 | 0.498 | 0.436 | 0.438 | 0.41 | 0.472 | 0.343 | 0.295 | 0.302 | 0.255 | 0.317 | 0.324 | 0.309 | 0.263 | 0.303 | 0.269
EKVX | 1.14 | 0.994 | 0.893 | 0.724 | 0.788 | 1.05 | 0.979 | 1 | 1.03 | 1.04 | 0.25 | 0.213 | 0.235 | – | 0.22 | 0.405 | 0.387 | 0.325 | 0.337 | 0.377
ABC-1 | 1.7 | 0.973 | 1 | 0.608 | 0.396 | 0.293 | 0.254 | 0.306 | 0.339 | 0.293 | 0.262 | 0.238 | 0.223 | 0.243 | 0.268 | – | – | 0.543 | 0.628 | 0.547
